# Reference: patent US7799778B1, “5-substituted 2-aminopyridine analogs for treating allergic and inflammatory diseases” (Alcon, Inc., priority 2005, dated 2010)
# Molecular target: Syk (h) (Homo sapiens, UniProt P43405)
# Experiment: Syk kinase activity (inhibition) assay, 33P-ATP filter assay
# Format: biochemical
# Conditions: 10 μM test agent; Syk (h) 5-10 mU; 40 minutes at room temperature
# Procedure: In a final reaction volume of 25 μl, Syk (h) (5-10 mU) is incubated with 50 mM Tris pH 7.5, […], 0.1 mM Na3VO4, 0.1% β-mercaptoethanol, 0.1 mg/mL poly (Glu, Tyr) 4:1, 10 μM test agent, 10 mM Mg Acetate and [γ-^33P-ATP] (specific activity approximately 500 cpm/pmol, concentration as required). The reaction is initiated by the addition of the MgATP mix. After incubation for 40 minutes at room temperature, the reaction is stopped by the addition of 5 μl of a 3% phosphoric acid solution. 10 μl of the reaction is then spotted onto a Filtermat A and washed three times for 5 minutes in 75 mM phosphoric acid and once in methanol prior to drying and scintillation counting. Percent inhibition was calculated using the following formula:
# % Control=((sample-mean no enzyme)/(mean plus enzyme−mean no enzyme))×100.
row,Structure (SMILES),inhibition at 10 µM
1,COc1cncc(-c2ccc(N3CCOCC3)nc2)c1,36%
2,CN(C)CCN(C)c1ccc(-c2ccc(Cl)cc2)cn1,51%
3,CCCC/C=C/c1ccc(N2CCN(CCN3CCCC3)CC2)nc1,38%
4,CN(C)CCN(C)c1ccc(-c2cccc(N(C)C)c2)cn1,45%
5,CN(C)CCN(C)c1ccc(-c2ccc(F)cc2F)cn1,45%
6,c1cc(N2CCN(CCN3CCCC3)CC2)ncc1-c1ccc2c(c1)OCO2,32%
7,COc1cc(-c2ccc(N3CCN(CCN4CCCC4)CC3)nc2)cc(OC)c1OC,37%
8,Oc1cccc(-c2ccc(N3CCOCC3)nc2)c1,35%
9,Fc1ccc(-c2ccc(N3CCOCC3)nc2)c(F)c1,34%
10,Fc1ccc(-c2ccc(N3CCN(CCN4CCCC4)CC3)nc2)c(F)c1,36%
11,CCOc1cccc(-c2ccc(N(C)CCN(C)C)nc2)c1,42%

# The next lines start with the values.
row,inhibition at 10 µM,Structure (SMILES)
1,31%,CCCC/C=C/c1ccc(N2CCN(CCN(C)C)CC2)nc1
2,56%,CN(C)CCN1CCN(c2ccc(-c3cc(C(F)(F)F)cc(C(F)(F)F)c3)cn2)CC1
3,36%,CN(C)CCN1CCN(c2ccc(/C=C/c3ccccc3)cn2)CC1
4,36%,COc1cc(-c2ccc(N3CCN(CCN(C)C)CC3)nc2)cc(OC)c1OC
5,30%,CN(C)CCN1CCN(c2ccc(-c3ccc(OC(F)(F)F)cc3)cn2)CC1
